Measurements from patent US20260022095A1, “COMPOUNDS USEFUL FOR THE PREPARATION OF VARIOUS AGROCHEMICALS AND MARKERS THEREOF” (ADAMA AGAN LTD., priority 2021, published 2026).

Assay: Sunlight exposure of buffered aqueous Tetflupyrolimet solutions, Storage Marker formation by HPLC-MS
Format: physicochemical
Conditions: natural sunlight approximately 2 months; for concentration of the Storage Marker as compared to the solution buffered at pH=7: quartz tube
Experimental: Three lots of about 50 mg of Tetflupyrolimet were each suspended in about 2 ml of a 2% solution of acetonitrile in water, and sonicated for about 20 minutes.
Into each, about 0.1 ml of a different buffer was added, pH=4, pH=7 and pH=10 respectively.
The three solutions were each filtered and introduced to quartz tubes and exposed to natural sunlight for approximately 2 months.
• Column: Agilent Zorbax Eclipse XDB C18, 150×4.6 mm ID, 5.0 μm • Injection volume: 5 μL • Oven temperature: 40° C. • Detector: UV, □=230, 250, 280 nm • Solvent delivery system conditions at flow rate of 1.0 ml/min: […]

Question: What does the source list for `CN1C[C@H](c2cccc(C(F)(F)F)c2)[C@@H](C(=O)Nc2ccccc2F)C1=O` [Tetflupyrolimet, (3S,4S)—N-(2-fluorophenyl)-1-methyl-2-oxo-4-(3-(trifluoromethyl)phenyl) pyrrolidine-3-carboxamide]?
Answer: formation of Storage Marker (HPLC-MS) (2% acetonitrile in water, buffered at pH=4, pH=7 and pH=10, quartz tubes): formation of Storage Marker in each solution; concentration of the Storage Marker as compared to the solution buffered at pH=7 (solution buffered at pH 4): approximately an order of magnitude higher concentration of the Storage Marker; concentration of the Storage Marker as compared to the solution buffered at pH=7 (solution buffered at pH 10): approximately an order of magnitude higher concentration of the Storage Marker
